Target: LRRK2 G2019S enzyme (Homo sapiens (Human), UniProt Q5S007, G2019S)
Assay: LRRK2 G2019S TR-FRET biochemical kinase assay (LRRKtide substrate)
Conditions: Table A-2; 5 nM LRRK2, 134 μM ATP, 60 minute reaction, 23° C.
Experimental: LRRK2 G2019S enzyme, Substrate (LRRKtide), ATP, TR-FRET dilution buffer, pLRRKtide antibody, 384-well assay plate, and DMSO.
50 mM Tris pH 7.5, 10 mM MgCl2, 1 mM EGTA, 0.01% Brij-35, 2 mM DTT, 5 nM LRRK2, 134 μM ATP, 60 minute reaction time, 23° C. reaction temperature, and 10 μL total reaction volume.
1×TR-FRET dilution buffer, 10 mM EDTA, 2 nM antibody, 23° C. reaction temperature, and 10 μL total reaction volume.
Compound solutions were prepared by initially diluting to 1 mM with DMSO. 35 μL of reference compound solution, 35 μL of test compound solution, and 35 μL HPE were successively added to the source plate (384-well assay plate, Labcyte). The plates were centrifuged at 2500 rpm for 1 minute and sealed in foil. POD was used to perform a 3.162 fold serial dilution and 100 nL of reference compound solution, test compound solution, HPE and ZPE were transferred to assay plates. The assay plate was centrifuged at 2500 rpm for 1 minute, and sealed with foil.
To perform the enzyme reaction, 5 μL of LRRKtide substrate and kinase mixture in assay buffer was added to all wells of the assay plate. The plate was centrifuged to concentrate the mixture at the bottom of the wells. The assay plate was incubated at 23° C. for 20 minutes. Following incubation, 5 μL of 2×ATP in assay buffer was added to each well, and plates were centrifuged to concentrate the mixture at the bottom of the wells. The plate was incubated at 23° C. for 60 minutes.
To perform the detection of the reaction, EDTA completely mixed in TR-FRET dilution buffer was added to antibody reagent. 10 μL of detection reagent was added to all wells of each well of the assay-plate and the plate was centrifuged to concentrate the mixture at the bottom of the wells. The plate was then incubated at 23° C. for 60 minutes. Plates were read on Perkin Elmer Envision 2104 instrument in TR-FRET mode using a 340 nm excitation filter, 520 nm fluorescence emission filter, and 490 or 495 nm terbium emission filter.
B-2, C2, and D-4 respectively.

LRRK2 G2019S enzyme, sequence (Q5S007 whole entry G2019S): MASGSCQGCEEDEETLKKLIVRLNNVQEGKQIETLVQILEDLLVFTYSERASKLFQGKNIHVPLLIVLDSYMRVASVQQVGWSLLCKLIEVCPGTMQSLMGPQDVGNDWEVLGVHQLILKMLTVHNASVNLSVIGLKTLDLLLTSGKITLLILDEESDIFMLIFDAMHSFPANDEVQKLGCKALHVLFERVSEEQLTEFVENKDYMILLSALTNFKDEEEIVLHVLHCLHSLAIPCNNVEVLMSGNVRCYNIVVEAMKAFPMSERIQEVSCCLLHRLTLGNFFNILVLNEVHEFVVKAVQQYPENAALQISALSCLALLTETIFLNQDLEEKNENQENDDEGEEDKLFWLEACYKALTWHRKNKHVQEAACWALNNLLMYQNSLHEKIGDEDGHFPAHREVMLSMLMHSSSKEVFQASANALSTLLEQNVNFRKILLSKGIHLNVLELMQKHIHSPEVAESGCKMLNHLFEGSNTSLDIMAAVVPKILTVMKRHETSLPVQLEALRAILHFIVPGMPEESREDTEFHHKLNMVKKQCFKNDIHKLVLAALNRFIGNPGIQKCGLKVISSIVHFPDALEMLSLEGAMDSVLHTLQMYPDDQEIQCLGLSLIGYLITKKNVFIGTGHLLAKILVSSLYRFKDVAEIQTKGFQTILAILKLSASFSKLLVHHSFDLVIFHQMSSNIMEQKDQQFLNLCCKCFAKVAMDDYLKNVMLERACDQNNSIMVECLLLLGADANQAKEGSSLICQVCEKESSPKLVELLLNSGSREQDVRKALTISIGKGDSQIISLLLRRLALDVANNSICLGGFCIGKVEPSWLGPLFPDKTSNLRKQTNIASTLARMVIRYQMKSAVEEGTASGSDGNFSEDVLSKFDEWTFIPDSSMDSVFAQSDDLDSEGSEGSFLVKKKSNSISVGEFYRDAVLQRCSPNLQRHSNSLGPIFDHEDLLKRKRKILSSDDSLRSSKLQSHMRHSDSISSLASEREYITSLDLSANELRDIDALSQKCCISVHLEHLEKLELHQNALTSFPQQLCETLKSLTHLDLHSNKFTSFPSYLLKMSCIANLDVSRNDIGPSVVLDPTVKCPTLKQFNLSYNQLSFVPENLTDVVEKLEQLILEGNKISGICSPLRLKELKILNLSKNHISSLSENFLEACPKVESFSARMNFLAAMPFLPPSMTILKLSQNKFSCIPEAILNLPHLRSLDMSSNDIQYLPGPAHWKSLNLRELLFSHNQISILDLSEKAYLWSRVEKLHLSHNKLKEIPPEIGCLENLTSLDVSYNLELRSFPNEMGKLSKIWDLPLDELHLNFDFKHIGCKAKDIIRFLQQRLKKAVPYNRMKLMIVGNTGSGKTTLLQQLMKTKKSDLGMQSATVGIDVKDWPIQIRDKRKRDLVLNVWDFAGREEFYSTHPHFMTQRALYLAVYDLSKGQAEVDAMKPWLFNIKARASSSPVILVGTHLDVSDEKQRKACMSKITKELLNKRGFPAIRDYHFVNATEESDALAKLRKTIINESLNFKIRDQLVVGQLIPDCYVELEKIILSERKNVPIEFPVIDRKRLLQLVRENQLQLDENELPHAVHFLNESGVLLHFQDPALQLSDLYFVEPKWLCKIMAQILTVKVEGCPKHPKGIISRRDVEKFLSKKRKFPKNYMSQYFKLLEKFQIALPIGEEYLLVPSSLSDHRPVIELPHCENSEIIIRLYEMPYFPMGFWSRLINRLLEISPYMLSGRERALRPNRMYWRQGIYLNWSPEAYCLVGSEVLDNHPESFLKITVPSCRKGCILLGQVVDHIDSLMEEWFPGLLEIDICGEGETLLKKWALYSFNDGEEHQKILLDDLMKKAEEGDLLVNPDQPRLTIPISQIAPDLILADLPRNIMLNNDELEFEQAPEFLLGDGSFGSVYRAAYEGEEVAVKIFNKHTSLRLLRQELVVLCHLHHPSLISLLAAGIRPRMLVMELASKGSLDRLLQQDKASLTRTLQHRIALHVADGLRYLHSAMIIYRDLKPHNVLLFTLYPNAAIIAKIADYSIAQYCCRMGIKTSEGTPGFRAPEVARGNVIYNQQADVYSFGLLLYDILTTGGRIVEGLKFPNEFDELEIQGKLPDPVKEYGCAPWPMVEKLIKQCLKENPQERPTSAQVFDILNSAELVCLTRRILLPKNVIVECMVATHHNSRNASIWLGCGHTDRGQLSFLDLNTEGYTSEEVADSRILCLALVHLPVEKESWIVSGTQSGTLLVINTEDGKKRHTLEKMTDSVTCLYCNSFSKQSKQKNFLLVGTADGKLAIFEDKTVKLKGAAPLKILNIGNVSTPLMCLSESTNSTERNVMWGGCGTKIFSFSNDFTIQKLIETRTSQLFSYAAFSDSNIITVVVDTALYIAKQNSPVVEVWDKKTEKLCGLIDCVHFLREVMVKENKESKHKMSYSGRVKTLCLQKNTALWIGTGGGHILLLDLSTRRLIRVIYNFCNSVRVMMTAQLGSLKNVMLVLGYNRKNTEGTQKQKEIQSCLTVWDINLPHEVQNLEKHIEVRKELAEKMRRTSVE

IC50 [nM]	Compound
< 30	[2H]C([2H])([2H])n1cnc(C(C)(C)n2cc(Nc3ncc(C(F)(F)F)c(C4CC4)n3)c(C)n2)n1 [Compound A-16, 4-cyclopropyl-N-[3-methyl-1-[1-methyl-1-[1-(trideuteriomethyl)-1,2,4-triazol-3-yl]ethyl]pyrazol-4-yl]-5-(trifluoromethyl)pyrimidin-2-amine]
30 to 60	CC(C)(C#N)n1cc(Nc2ncc(C(F)(F)F)c(C3CC3)n2)c(Cl)n1 [Compound A-17, 2-(3-chloro-4-((4-cyclopropyl-5-(trifluoromethyl)pyrimidin-2-yl)amino)-1H-pyrazol-1-yl)-2-methylpropanenitrile]
30 to 60	Cc1c(Nc2ncc(C(F)(F)F)c(C3CC3)n2)cnn1CC(C)(C)O [Compound A-18, 1-[4-[[4-cyclopropyl-5-(trifluoromethyl)pyrimidin-2-yl]amino]-5-methyl-pyrazol-1-yl]-2-methyl-propan-2-ol]
30 to 60	Cc1nn(CC(C)(C)O)cc1Nc1ncc(C(F)(F)F)c(C2CC2)n1 [Compound A-19, 1-[4-[[4-cyclopropyl-5-(trifluoromethyl)pyrimidin-2-yl]amino]-3-methyl-pyrazol-1-yl]-2-methyl-propan-2-ol]
< 30	CC(=O)N1CCC(n2ncc(Nc3ncc(C(F)(F)F)c(C4CC4)n3)c2C)CC1 [Compound A-20, 1-[4-[4-[[4-cyclopropyl-5-(trifluoromethyl)pyrimidin-2-yl]amino]-5-methyl-pyrazol-1-yl]-1-piperidyl]ethanone]
30 to 60	CC(=O)N1CCC(n2cc(Nc3ncc(C(F)(F)F)c(C4CC4)n3)c(C)n2)CC1 [Compound A-21, 1-[4-[4-[[4-cyclopropyl-5-(trifluoromethyl)pyrimidin-2-yl]amino]-3-methyl-pyrazol-1-yl]-1-piperidyl]ethanone]
> 60	Cc1nn(C(C)(C)c2ccnn2C)cc1Nc1ncc(C(F)(F)F)c(C2CC2)n1 [Compound A-22, 4-cyclopropyl-N-(3-methyl-1-(2-(1-methyl-1H-pyrazol-5-yl)propan-2-yl)-1H-pyrazol-4-yl)-5-(trifluoromethyl)pyrimidin-2-amine]
< 30	Cc1nn(C(C)(C)c2ccn(C)n2)cc1Nc1ncc(C(F)(F)F)c(C2CC2)n1 [Compound A-23, 4-cyclopropyl-N-(3-methyl-1-(2-(1-methyl-1H-pyrazol-3-yl)propan-2-yl)-1H-pyrazol-4-yl)-5-(trifluoromethyl)pyrimidin-2-amine]
< 30	Cc1c(Nc2ncc(C(F)(F)F)c(C3CC3)n2)cnn1C1CCOCC1 [Compound A-24, 4-cyclopropyl-N-(5-methyl-1-tetrahydropyran-4-yl-pyrazol-4-yl)-5-(trifluoromethyl)pyrimidin-2-amine]
30 to 60	Cc1nn(C2CCOCC2)cc1Nc1ncc(C(F)(F)F)c(C2CC2)n1 [Compound A-25, 4-cyclopropyl-N-(3-methyl-1-tetrahydropyran-4-yl-pyrazol-4-yl)-5-(trifluoromethyl)pyrimidin-2-amine]
< 30	Cc1c(Nc2ncc(C(F)(F)F)c(C3CC3)n2)cnn1C1CCC(=O)N(C)C1 (stereo not shown) [Compound A-26, 5-(4-((4-cyclopropyl-5-(trifluoromethyl)pyrimidin-2-yl)amino)-5-methyl-1H-pyrazol-1-yl)-1-methylpiperidin-2-one]
> 60	Cc1nn(C2CCC(=O)N(C)C2)cc1Nc1ncc(C(F)(F)F)c(C2CC2)n1 (stereo not shown) [Compound A-27, 5-(4-((4-cyclopropyl-5-(trifluoromethyl)pyrimidin-2-yl)amino)-3-methyl-1H-pyrazol-1-yl)-1-methylpiperidin-2-one]
< 30	Cc1c(Nc2ncc(C(F)(F)F)c(C3CC3)n2)cnn1C(CF)CF [Compound A-28, 4-cyclopropyl-N-[1-[2-fluoro-1-(fluoromethyl)ethyl]-5-methyl-pyrazol-4-yl]-5-(trifluoromethyl)pyrimidin-2-amine]
< 30	Cc1nn(C(CF)CF)cc1Nc1ncc(C(F)(F)F)c(C2CC2)n1 [Compound A-29, 4-cyclopropyl-N-[1-[2-fluoro-1-(fluoromethyl)ethyl]-3-methyl-pyrazol-4-yl]-5-(trifluoromethyl)pyrimidin-2-amine]
< 30	Cc1c(Nc2ncc(C(F)(F)F)c(C3CC3)n2)cnn1CCF [Compound A-30, 4-cyclopropyl-N-(1-(2-fluoroethyl)-5-methyl-1H-pyrazol-4-yl)-5-(trifluoromethyl)pyrimidin-2-amine]
< 30	Cc1nn(CCF)cc1Nc1ncc(C(F)(F)F)c(C2CC2)n1 [Compound A-31, 4-cyclopropyl-N-(1-(2-fluoroethyl)-3-methyl-1H-pyrazol-4-yl)-5-(trifluoromethyl)pyrimidin-2-amine]
> 60	Cc1nn(C(C)(C)C#N)cc1Nc1ncc(Cl)c(C2CCC2)n1 [Compound A-32, 2-(4-((5-chloro-4-cyclobutylpyrimidin-2-yl)amino)-3-methyl-1H-pyrazol-1-yl)-2-methylpropanenitrile]
> 60	Cc1nn(C(C)(C)c2ccnn2C)cc1Nc1ncc(Cl)c(C2CC2)n1 [Compound A-33, 5-chloro-4-cyclopropyl-N-(3-methyl-1-(2-(1-methyl-1H-pyrazol-5-yl)propan-2-yl)-1H-pyrazol-4-yl)pyrimidin-2-amine]
< 30	Cc1nn(C(C)(C)c2ccn(C)n2)cc1Nc1ncc(Cl)c(C2CC2)n1 [Compound A-34, 5-chloro-4-cyclopropyl-N-(3-methyl-1-(2-(1-methyl-1H-pyrazol-3-yl)propan-2-yl)-1H-pyrazol-4-yl)pyrimidin-2-amine]
< 30	Cc1nn(C(C)(C)c2ncn(C)n2)cc1Nc1ncc(Cl)c(C2CC2)n1 [Compound A-35, 5-chloro-4-cyclopropyl-N-(3-methyl-1-(2-(1-methyl-1H-1,2,4-triazol-3-yl)propan-2-yl)-1H-pyrazol-4-yl)pyrimidin-2-amine]
< 30	Cn1cnc(C(C)(C)n2cc(Nc3ncc(C(F)(F)F)c(C4CC4)n3)c(Cl)n2)n1 [Compound A-36, N-(3-chloro-1-(2-(1-methyl-1H-1,2,4-triazol-3-yl)propan-2-yl)-1H-pyrazol-4-yl)-4-cyclopropyl-5-(trifluoromethyl)pyrimidin-2-amine]
> 60	Cn1ncnc1C(C)(C)n1cc(Nc2ncc(C(F)(F)F)c(C3CC3)n2)c(Cl)n1 [Compound A-37, N-(3-chloro-1-(2-(1-methyl-1H-1,2,4-triazol-5-yl)propan-2-yl)-1H-pyrazol-4-yl)-4-cyclopropyl-5-(trifluoromethyl)pyrimidin-2-amine]
> 60	Cc1nn(C(C)(C)C#N)cc1Nc1ncc(C(F)(F)F)c(C2(F)CC2)n1 [Compound A-38, 2-(4-((4-(1-fluorocyclopropyl)-5-(trifluoromethyl)pyrimidin-2-yl)amino)-3-methyl-1H-pyrazol-1-yl)-2-methylpropanenitrile]
< 30	Cc1nn(C(C)(C)c2cn(C)nn2)cc1Nc1ncc(C(F)(F)F)c(C2CC2)n1 [Compound A-39, 4-cyclopropyl-N-(3-methyl-1-(2-(1-methyl-1H-1,2,3-triazol-4-yl)propan-2-yl)-1H-pyrazol-4-yl)-5-(trifluoromethyl)pyrimidin-2-amine]
< 30	Cc1nn(C(C)(C)c2cnn(C)n2)cc1Nc1ncc(C(F)(F)F)c(C2CC2)n1 [Compound A-40, 4-cyclopropyl-N-(3-methyl-1-(2-(2-methyl-2H-1,2,3-triazol-4-yl)propan-2-yl)-1H-pyrazol-4-yl)-5-(trifluoromethyl)pyrimidin-2-amine]

— US11214565B2, “Compound, compositions, and methods” (Denali Therapeutics Inc., priority 2015, dated 2022)
